What was measured:
[1] = target: Vascular endothelial growth factor receptor 1 (Homo sapiens) (UniProt P17948); test: Inhibition of recombinant human FLT1 (783 to end residues) assessed as residual activity at 1 uM using KKKSPGEYVNIEFG as substrate at 40 mins in presence of [gamma-33ATP] by scintillation counting based radiometry assay relative to control
[2] = test system: Mast/stem cell growth factor receptor Kit (Homo sapiens), P10721 [V654A]; test: Inhibition of recombinant human C-Kit V654A mutant (544 to end residues) assessed as residual activity at 1 uM poly(Glu, Tyr) 4:1 as substrate incubated 40 mins in presence of [gamma-33ATP] by scintillation counting based radiometry assay relative to control
[3] = test system: Serine/threonine-protein kinase B-raf (Homo sapiens), P15056 [V600E]; test: Inhibition of recombinant full length human B-Raf V599E mutant (416 to end residues) assessed as residual activity at 1 uM using myelin basic protein as substrate incubated for 40 mins in presence of [gamma-33ATP] by scintillation counting based radiometry assay relative to control
[4] = target: Serine/threonine-protein kinase 35 (Homo sapiens) (UniProt Q8TDR2); test: Inhibition of recombinant full length human CLIK1 assessed as residual activity at 1 uM using RSRSRSRSRSRS as substrate incubated 40 mins in presence of [gamma-33ATP] by scintillation counting based radiometry assay relative to control
[5] = target: Serine/threonine-protein kinase Nek3 (Homo sapiens) (UniProt P51956); test: Inhibition of recombinant full-length human NEK3 assessed as residual activity at 1 uM using myelin basic protein as substrate measured after 40 mins in presence of [gamma33P]ATP by scintillation counting method relative to control
[6] = target: Ribosomal protein S6 kinase alpha-4 (Homo sapiens) (UniProt O75676); test: Inhibition of recombinant human MSK2 (2 to end residues) assessed as residual activity at 1 uM using GRPRTSSFAEGKK as substrate measured after 40 mins in presence of [gamma33P]ATP by scintillation counting method relative to control
[7] = target: CDK2/Cyclin A1 (Homo sapiens) (UniProt P24941+P78396); test: Inhibition of recombinant full length human CDK2/CyclinA assessed as residual activity at 1 uM using Histone H1 as substrate incubated for 40 mins in presence of [gamma-33ATP] by scintillation counting based radiometry assay relative to control; type: protein-complex assay
[8] = target: Calcium/calmodulin-dependent protein kinase kinase 1 (Homo sapiens) (UniProt Q8N5S9); test: Inhibition of recombinant full length human CaMKK1 assessed as residual activity at 1 uM […] incubated for 40 mins in presence of [gamma-33ATP] by scintillation counting based radiometry assay relative to control
[9] = target: MAPK/MAK/MRK overlapping kinase (Homo sapiens) (UniProt Q9UQ07); test: Inhibition of recombinant human MOK (1 to 343 residues) assessed as residual activity at 1 uM using RSRSRSRSRSRSRSR as substrate measured after 40 mins in presence of [gamma33P]ATP by scintillation counting method relative to control
[10] = target: Tyrosine-protein kinase Fes/Fps (Homo sapiens) (UniProt P07332); test: Inhibition of recombinant human FES (2 to end residues) assessed as residual activity at 1 uM using poly(Glu, Tyr) 4:1 as substrate at 40 mins in presence of [gamma-33ATP] by scintillation counting based radiometry assay relative to control
[11] = target: Focal adhesion kinase 1 (Homo sapiens) (UniProt Q05397); test: Inhibition of recombinant human FAK (411 to 686 residues) assessed as residual activity at 1 uM using EEEEYEEEEEEYYIIEEEEEEYEEEEEEYYEEEEEEKKKK as substrate at 40 mins in presence of [gamma-33ATP] by scintillation counting based radiometry assay relative to control
[12] = target: Serine/threonine-protein kinase SBK1 (Homo sapiens) (UniProt Q52WX2); test: Inhibition of recombinant full-length human SBK1 assessed as residual activity at 1 uM using KKLRRTLSVA as substrate measured after 120 mins in presence of [gamma33P]ATP by scintillation counting method relative to control
[13] = target: Serine/threonine-protein kinase 24 (Homo sapiens) (UniProt Q9Y6E0); test: Inhibition of recombinant human MST3 (1 to 304 residues) assessed as residual activity at 1 uM using ERMRPRKRQGSVRRRV as substrate measured after 40 mins in presence of [gamma33P]ATP by scintillation counting method relative to control
[14] = target: Death-associated protein kinase 2 (Homo sapiens) (UniProt Q9UIK4); test: Inhibition of recombinant full length human DAPK2 assessed as residual activity at 1 uM Calmodulin as substrate incubated 40 mins in presence of [gamma-33ATP] by scintillation counting based radiometry assay relative to control
[15] = target: Ephrin type-A receptor 8 (Homo sapiens) (UniProt P29322); test: Inhibition of recombinant human EphA8 (615 to 911 residues) assessed as residual activity at 1 uM using KTFCGTPEYLAPEVRREPRILSEEEQEMFRDFDYIADWC as substrate at 40 mins in presence of [gamma-33ATP] by scintillation counting based radiometry assay relative to control
[16] = target: Serine/threonine-protein kinase PLK1 (Homo sapiens) (UniProt P53350); test: Inhibition of recombinant full-length human Plk1 assessed as residual activity at 1 uM using casein as substrate measured after 40 mins in presence of [gamma33P]ATP by scintillation counting method relative to control
[17] = target: Mitogen-activated protein kinase 9 (Homo sapiens) (UniProt P45984); test: Inhibition of human JNK2alpha2 assessed as residual activity at 1 uM using ATF2 as substrate after 40 mins by [gamma-33ATP] radiometric assay relative to control
[18] = target: Platelet-derived growth factor receptor alpha (Homo sapiens) (UniProt P16234); test: Inhibition of human PDGFRalpha (550 to end residues) assessed as residual activity at 1 uM poly(Glu, Tyr) 4:1 as substrate measured after 40 mins in presence of [gamma33P]ATP by scintillation counting method relative to control
[19] = target: Aurora kinase C (Homo sapiens) (UniProt Q9UQB9); test: Inhibition of recombinant human Aurora C (35 to end residues) assessed as residual activity at 1 uM using AKRRRLSSLRA as substrate incubated for 40 mins in presence of [gamma-33ATP] by scintillation counting based radiometry assay relative to control
[20] = test system: Hepatocyte growth factor receptor (Homo sapiens), P08581 [Y1230C]; test: Inhibition of recombinant human MET A1209G/V1290L/Y1248C mutant (974 to end residues) assessed as residual activity at 1 uM using KKKGQEEEYVFIE as substrate incubated for 40 mins in presence of [gamma-33ATP by scintillation counting based radiometry assay relative to control
[21] = target: Homeodomain-interacting protein kinase 3 (Homo sapiens) (UniProt Q9H422); test: Inhibition of human HIPK3 (161 to 562 residues) assessed as residual activity at 1 uM using myelin basic protein as substrate after 40 mins by [gamma-33ATP] radiometric assay relative to control

Chain of Aurora kinase C (Homo sapiens) (Q9UQB9 whole entry): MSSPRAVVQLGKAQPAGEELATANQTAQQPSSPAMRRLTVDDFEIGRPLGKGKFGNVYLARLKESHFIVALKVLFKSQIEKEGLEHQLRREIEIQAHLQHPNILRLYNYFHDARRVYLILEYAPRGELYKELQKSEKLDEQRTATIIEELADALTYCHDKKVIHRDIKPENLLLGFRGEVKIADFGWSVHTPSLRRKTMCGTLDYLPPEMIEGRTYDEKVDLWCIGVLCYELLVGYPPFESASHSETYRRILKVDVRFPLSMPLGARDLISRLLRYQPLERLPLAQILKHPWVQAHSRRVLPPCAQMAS
Chain of Serine/threonine-protein kinase 24 (Homo sapiens) (Q9Y6E0 whole entry, looked up, the tested form may be a part): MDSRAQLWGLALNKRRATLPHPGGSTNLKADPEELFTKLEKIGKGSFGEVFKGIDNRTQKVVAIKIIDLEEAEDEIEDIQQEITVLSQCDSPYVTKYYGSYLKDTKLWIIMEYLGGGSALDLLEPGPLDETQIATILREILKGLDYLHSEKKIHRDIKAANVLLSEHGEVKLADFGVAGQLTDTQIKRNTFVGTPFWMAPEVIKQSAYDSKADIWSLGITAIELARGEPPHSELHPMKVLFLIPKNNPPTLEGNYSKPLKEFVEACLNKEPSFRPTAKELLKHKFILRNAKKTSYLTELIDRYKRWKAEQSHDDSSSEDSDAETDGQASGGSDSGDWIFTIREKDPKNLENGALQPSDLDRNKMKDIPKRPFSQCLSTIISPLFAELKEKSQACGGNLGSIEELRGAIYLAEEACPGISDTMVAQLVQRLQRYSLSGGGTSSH
Chain of Mast/stem cell growth factor receptor Kit (Homo sapiens), P10721 [V654A] (P10721 whole entry V654A): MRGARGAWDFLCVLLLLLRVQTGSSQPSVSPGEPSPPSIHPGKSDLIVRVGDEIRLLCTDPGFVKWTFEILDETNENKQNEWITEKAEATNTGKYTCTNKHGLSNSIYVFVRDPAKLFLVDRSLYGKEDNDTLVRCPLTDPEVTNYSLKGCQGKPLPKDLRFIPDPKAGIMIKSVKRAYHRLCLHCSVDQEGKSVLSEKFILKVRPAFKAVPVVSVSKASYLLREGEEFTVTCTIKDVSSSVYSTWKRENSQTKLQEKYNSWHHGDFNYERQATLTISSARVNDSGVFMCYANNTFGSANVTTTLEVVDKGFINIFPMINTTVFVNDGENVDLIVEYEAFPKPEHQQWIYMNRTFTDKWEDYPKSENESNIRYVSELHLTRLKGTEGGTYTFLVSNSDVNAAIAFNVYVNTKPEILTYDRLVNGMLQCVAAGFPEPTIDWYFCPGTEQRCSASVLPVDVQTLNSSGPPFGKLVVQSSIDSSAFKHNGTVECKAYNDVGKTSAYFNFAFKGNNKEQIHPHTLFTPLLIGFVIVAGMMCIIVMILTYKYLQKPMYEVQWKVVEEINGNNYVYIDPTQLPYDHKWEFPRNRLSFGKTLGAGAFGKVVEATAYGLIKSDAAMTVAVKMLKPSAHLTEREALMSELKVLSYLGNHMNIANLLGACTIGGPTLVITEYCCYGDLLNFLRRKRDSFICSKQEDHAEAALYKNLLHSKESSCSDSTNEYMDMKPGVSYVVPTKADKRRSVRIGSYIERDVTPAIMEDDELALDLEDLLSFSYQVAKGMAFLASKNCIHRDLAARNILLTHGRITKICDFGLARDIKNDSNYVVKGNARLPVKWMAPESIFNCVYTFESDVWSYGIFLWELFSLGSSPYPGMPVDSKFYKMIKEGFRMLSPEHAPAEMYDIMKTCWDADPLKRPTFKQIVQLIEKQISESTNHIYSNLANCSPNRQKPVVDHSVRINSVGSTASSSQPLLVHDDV
Chain of Death-associated protein kinase 2 (Homo sapiens) (Q9UIK4 whole entry, looked up, the tested form may be a part): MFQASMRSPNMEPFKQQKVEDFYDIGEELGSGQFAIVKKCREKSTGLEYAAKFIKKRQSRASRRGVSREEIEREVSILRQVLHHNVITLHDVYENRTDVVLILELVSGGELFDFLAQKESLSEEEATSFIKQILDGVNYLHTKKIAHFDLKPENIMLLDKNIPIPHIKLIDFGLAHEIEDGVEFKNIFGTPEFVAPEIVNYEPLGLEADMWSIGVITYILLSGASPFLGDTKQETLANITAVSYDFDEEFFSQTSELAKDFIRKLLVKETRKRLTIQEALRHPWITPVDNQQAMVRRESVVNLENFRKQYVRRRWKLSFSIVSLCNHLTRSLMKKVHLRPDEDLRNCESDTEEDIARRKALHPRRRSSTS
Chain of Focal adhesion kinase 1 (Homo sapiens) (Q05397 2-1052 limits assumed): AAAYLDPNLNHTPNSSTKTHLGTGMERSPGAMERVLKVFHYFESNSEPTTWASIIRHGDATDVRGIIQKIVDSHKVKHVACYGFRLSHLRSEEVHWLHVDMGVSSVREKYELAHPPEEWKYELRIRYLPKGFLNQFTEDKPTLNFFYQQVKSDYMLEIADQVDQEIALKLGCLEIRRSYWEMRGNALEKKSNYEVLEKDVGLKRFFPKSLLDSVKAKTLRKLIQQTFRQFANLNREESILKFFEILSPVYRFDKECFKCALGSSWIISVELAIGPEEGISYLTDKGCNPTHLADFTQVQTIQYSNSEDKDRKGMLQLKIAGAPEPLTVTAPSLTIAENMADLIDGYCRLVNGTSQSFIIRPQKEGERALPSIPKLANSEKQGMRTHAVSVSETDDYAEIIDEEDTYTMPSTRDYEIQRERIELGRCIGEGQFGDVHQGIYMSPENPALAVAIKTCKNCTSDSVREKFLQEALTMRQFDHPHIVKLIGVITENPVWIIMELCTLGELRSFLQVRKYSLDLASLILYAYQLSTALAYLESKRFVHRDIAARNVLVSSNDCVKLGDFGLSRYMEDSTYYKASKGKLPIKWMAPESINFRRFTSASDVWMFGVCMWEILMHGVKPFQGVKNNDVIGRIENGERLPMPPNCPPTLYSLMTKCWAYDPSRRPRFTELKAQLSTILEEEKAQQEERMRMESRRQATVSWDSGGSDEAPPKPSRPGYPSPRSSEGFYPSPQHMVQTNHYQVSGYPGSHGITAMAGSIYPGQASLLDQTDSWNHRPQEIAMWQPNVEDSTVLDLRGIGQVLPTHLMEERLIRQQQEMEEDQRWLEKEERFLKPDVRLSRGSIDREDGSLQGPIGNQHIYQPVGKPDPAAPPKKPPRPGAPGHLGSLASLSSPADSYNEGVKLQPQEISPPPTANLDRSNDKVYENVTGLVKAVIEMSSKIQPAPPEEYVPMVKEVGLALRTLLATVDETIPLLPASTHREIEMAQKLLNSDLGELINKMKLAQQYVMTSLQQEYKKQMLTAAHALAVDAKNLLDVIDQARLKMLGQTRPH
Chain of Serine/threonine-protein kinase 35 (Homo sapiens) (Q8TDR2 whole entry): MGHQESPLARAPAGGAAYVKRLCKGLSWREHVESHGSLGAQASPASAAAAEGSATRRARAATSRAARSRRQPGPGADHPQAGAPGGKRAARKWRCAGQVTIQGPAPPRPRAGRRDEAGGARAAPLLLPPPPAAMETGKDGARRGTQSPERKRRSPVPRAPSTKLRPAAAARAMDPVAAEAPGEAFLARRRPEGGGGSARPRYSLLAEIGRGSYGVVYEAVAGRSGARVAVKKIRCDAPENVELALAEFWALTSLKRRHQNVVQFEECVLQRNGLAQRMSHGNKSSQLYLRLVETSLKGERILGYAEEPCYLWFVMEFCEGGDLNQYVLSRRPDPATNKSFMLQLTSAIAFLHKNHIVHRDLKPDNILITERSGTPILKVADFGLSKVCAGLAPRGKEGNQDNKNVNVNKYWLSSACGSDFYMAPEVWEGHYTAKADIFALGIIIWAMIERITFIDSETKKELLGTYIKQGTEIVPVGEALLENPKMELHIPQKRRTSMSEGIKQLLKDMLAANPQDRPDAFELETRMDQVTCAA
Chain of Vascular endothelial growth factor receptor 1 (Homo sapiens) (P17948 whole entry): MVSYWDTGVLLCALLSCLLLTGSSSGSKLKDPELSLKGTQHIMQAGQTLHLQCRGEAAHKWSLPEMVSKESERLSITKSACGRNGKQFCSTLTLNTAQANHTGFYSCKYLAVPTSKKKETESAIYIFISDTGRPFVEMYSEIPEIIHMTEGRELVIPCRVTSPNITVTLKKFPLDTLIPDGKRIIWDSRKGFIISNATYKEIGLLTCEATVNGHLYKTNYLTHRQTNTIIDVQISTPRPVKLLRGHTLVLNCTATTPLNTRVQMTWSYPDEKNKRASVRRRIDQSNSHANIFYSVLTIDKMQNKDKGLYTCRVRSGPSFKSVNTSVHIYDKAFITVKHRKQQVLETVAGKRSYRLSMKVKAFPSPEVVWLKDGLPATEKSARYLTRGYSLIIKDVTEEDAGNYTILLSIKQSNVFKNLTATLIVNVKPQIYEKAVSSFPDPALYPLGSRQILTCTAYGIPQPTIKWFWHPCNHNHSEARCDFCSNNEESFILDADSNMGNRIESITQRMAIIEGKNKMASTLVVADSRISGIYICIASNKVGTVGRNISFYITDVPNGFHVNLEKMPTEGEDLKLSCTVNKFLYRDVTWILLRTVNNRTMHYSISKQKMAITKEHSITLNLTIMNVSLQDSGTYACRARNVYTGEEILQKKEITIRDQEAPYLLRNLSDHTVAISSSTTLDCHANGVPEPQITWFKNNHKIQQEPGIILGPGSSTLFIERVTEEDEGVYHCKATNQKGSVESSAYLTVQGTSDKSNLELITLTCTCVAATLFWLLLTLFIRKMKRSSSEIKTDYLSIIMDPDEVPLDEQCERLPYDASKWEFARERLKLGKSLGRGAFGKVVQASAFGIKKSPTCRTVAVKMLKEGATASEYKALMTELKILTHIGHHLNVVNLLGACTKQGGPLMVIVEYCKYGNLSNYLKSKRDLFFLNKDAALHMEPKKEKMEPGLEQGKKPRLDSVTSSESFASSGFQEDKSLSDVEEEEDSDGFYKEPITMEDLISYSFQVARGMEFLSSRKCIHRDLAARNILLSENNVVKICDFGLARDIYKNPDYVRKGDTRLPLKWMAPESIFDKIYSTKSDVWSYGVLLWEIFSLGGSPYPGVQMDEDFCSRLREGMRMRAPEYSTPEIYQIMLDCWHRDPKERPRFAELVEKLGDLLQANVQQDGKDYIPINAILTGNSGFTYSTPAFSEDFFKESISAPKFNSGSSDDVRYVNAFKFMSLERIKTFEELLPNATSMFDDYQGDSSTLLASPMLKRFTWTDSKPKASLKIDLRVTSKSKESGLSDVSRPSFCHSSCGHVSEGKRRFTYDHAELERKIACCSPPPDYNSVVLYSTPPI

## C=CCOC(=O)c1cc(-c2ccc(/C=C3/NC(=S)NC3=O)o2)ccc1Cl
[1]
  Activity: 96%
[2]
  Activity: 95%
[3]
  Activity: 87%
[4]
  Activity: 74%
[5]
  Activity: 94%
[6]
  Activity: 103%
[7]
  Activity: 54%
[8]
  Activity: 96%
[9]
  Activity: 118%
[10]
  Activity: 91%
[11]
  Activity: 105%
[12]
  Activity: 112%
[13]
  Activity: 106%
[14]
  Activity: 86%
[15]
  Activity: 99%
[16]
  Activity: 103%
[17]
  Activity: 109%
[18]
  Activity: 92%
[19]
  Activity: 104%
[20]
  Activity: 114%
[21]
  Activity: 7%

## N=C1NC(=O)/C(=C\c2ccc(-c3cccc([N+](=O)[O-])c3)o2)S1
[1]
  Activity: 97%
[2]
  Activity: 108%
[3]
  Activity: 95%
[4]
  Activity: 51%
[5]
  Activity: 89%
[6]
  Activity: 97%
[7]
  Activity: 61%
[8]
  Activity: 92%
[9]
  Activity: 101%
[10]
  Activity: 103%
[11]
  Activity: 105%
[12]
  Activity: 98%
[13]
  Activity: 105%
[14]
  Activity: 83%
[15]
  Activity: 94%
[16]
  Activity: 99%
[17]
  Activity: 103%
[18]
  Activity: 104%
[19]
  Activity: 109%
[20]
  Activity: 98%
[21]
  Activity: 2%

Reference: ChEMBL document CHEMBL4334438, “Discovery of novel glycogen synthase kinase-3α inhibitors: Structure-based virtual screening, preliminary SAR and biological evaluation for treatment of acute myeloid leukemia” (Eur J Med Chem, 2019)
